The source of these data is patent US6417010B1, “Methods and apparatus for synthesizing labeled combinatorial chemistry libraries” (Discovery Partners International, priority 1993, dated 2002).

This assay relates to Monoclonal antibody 3E7. Nature of the assay: Magnetic selection of peptide-bearing ELAMS by microbead-conjugated 3E7 antibody. The settings on record: PBS, 16 hour incubation at 4° C., high strength magnet. Type of assay: binding.

Experimental: After a 16 hour incubation at 4° C., beads which bind the 3E7 antibody can be selected using a high strength magnet. The identifier information of the selected beads is then analyzed with a model DAS-4001EM or DAS-4001 detector (Bio Medic Data Systems).

Consider Tyr-Gly-Gly-L-Phe-L-Leu [YGGFL], for which the “selection of ELAMS by the 3E7 antibody” value is given as “selected by the 3E7 antibody”.
